Assay results: patent publication US6525059B1, “Substituted pyrazoles as p38 kinase inhibitors” (G. D. Searle & Company, priority 1998, dated 2003)

Key:
[1] = system: TNF-α; experiment: LPS stimulation of TNF production by U937 cells; type: cell-based, human; settings: Homo sapiens, U-937, @ 1.0 uM; read-out: U937 Cell % inhib @ conc.
Method in brief: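 PMA-differentiated human U937 cells (20 ng/ml PMA, 24 h, then 24-48 h rest) at 2 million cells/ml, 0.1% DMSO final, stimulated with E. coli LPS (100 ng/ml final) for 4 h at 37° C. TNF-α in medium measured by ELISA; IC50 in μM.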

[2] = system: TNF-α; experiment: Rat assay: LPS-challenged rats, serum TNF-α by ELISA; type: in vivo; settings: for inhibition in vivo at 3 mg/kg: -4 h, read-out: Rat LPS Model % inhib @ dose @ predose time; for inhibition in vivo at 3 mg/kg / Rat LPS Model % inhib @ dose @ predose time: 3 mpk oral gavage; for inhibition in vivo at 5 mg/kg: 5 mpk oral gavage, read-out: Rat LPS Model % Inhibition @ dose @ predose time
Procedure: The efficacy of the novel compounds in blocking the production of TNF also was evaluated using a model based on rats challenged with LPS. Male Harlen Lewis rats [Sprague Dawley Co.] were used in this model. Each rat weighed approximately 300 g and was fasted overnight prior to testing. Compounds administration was typically by oral gavage (although intraperitoneal, subcutaneous and intravenous administration were also used in a few instances) 1 to 24 hours prior to the LPS challenge. Rats were administered 30 μg/kg LPS [salmonella typhosa, Sigma Co.] intravenously via the tail vein. Blood was collected via heart puncture 1 hour after the LPS challenge. Serum samples were stored at −20° C. until quantitative analysis of TNF-α by Enzyme Linked-Immuno-Sorbent Assay (“ELISA”) [Biosource]. Additional details of the assay are set forth in Perretti, M., et al., Br. J. Pharmacol. (1993), 110, 868-874, which is incorporated by reference in this application.
In vivo assessment of the ability of the compounds to inhibit LPS-stimulated TNF release in the rat is shown in the column identified as:
wherein in the dose is milligram per kilogram (mpk) administered by oral gavage and the predose time indicates the number of hours before LPS challenge when the compound is administered.

[3] = biological target: T1, human p38 kinase alpha (Homo sapiens, UniProt Q16539); experiment: p38 kinase in vitro assay, phosphorylation of biotinylated PHAS-I with gamma 32P-ATP; type: biochemical; settings: read-out: P38 alpha kinase IC50
T1 construct: The coding region of the human p38a cDNA was obtained by PCR-amplification from RNA isolated from the human monocyte cell line THP.1; GST (N); made in house; host or cells: E. coli DH10B
T1 sequence (Q16539 whole entry): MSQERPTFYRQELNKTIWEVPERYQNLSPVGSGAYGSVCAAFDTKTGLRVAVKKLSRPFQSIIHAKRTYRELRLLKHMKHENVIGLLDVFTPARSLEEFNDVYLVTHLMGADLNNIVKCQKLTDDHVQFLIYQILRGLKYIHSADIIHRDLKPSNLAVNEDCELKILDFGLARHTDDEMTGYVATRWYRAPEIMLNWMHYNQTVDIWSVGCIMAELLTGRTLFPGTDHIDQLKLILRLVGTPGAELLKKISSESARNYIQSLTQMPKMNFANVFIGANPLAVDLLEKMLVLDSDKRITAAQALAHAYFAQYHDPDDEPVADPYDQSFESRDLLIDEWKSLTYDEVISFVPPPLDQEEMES
Method in brief: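 MKK6-activated human p38α phosphorylates biotinylated PHAS-I with γ-32P-ATP in 25 mM HEPES pH 7.5, 10 mM Mg acetate, 50 μM unlabeled ATP, 1% DMSO, 30 °C for 1 h or overnight. Compounds at 100–0.001 μM (10-fold steps, triplicate); substrate captured on streptavidin filter plates and counted by scintillation.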

[4] = Rattus norvegicus, po, -4h before LPS
[5] = Rattus norvegicus, po, 4 h before LPS challenge

C[C@@H](NS(=O)(=O)c1ccc(F)c(Cl)c1)c1[nH]nc(-c2ccc(F)cc2)c1-c1ccncc1 [Example B-0466]
inhibition at 1 µM [1]: 98%
inhibition in vivo at 3 mg/kg [2, 4]: 0%

C[C@@H](NS(=O)(=O)c1ccc(C#N)cc1)c1[nH]nc(-c2ccc(F)cc2)c1-c1ccncc1 [Example B-0479]
IC50 [3]: 31 nM
inhibition at 1 µM [1]: 90%
inhibition in vivo at 3 mg/kg [2, 4]: 15%

C[C@@H](NS(=O)(=O)c1ccc(-c2ccccc2)cc1)c1[nH]nc(-c2ccc(F)cc2)c1-c1ccncc1 [Example B-0481]
IC50 [3]: 14 nM
inhibition at 1 µM [1]: 95%
inhibition in vivo at 3 mg/kg [2, 4]: 56%

C[C@@H](NS(=O)(=O)N(C)C)c1[nH]nc(-c2ccc(F)cc2)c1-c1ccncc1 [Example B-0487]
inhibition in vivo at 3 mg/kg [2, 4]: 54%

CC(NS(=O)(=O)c1ccc(F)cc1)c1[nH]nc(-c2ccc(F)cc2)c1-c1ccncc1 (stereo not drawn) [Example B-0562]
Rat LPS Model % inhib @ dose @ predose time ([2]; -4h before LPS): 5% @ 3 mpk @ -4h

CC(NS(=O)(=O)Cc1ccccc1)c1[nH]nc(-c2ccc(F)cc2)c1-c1ccncc1 (stereo not drawn) [Example B-0566]
Rat LPS Model % inhib @ dose @ predose time ([2]; -4h before LPS): 0% @ 3 mpk @ -4h

COc1ccc(S(=O)(=O)NC(C)c2[nH]nc(-c3ccc(F)cc3)c2-c2ccncc2)cc1 (stereo not drawn) [Example B-0574]
Rat LPS Model % inhib @ dose @ predose time ([2]; -4h before LPS): 37% @ 3 mpk @ -4h

Cc1ccc(S(=O)(=O)NC(C)c2[nH]nc(-c3ccc(F)cc3)c2-c2ccncc2)cc1 (stereo not drawn) [Example B-0576]
Rat LPS Model % inhib @ dose @ predose time ([2]; -4h before LPS): 65% @ 3 mpk @ -4h

CC(NC(=O)C(C)(C)C)c1[nH]nc(-c2ccc(F)cc2)c1-c1ccncc1 (stereo not drawn) [Example B-0601]
Rat LPS Model % inhib @ dose @ predose time ([2]; -4h before LPS): 43% @ 3 mpk %-4h

CC(NS(=O)(=O)c1cccc(Cl)c1)c1[nH]nc(-c2ccc(F)cc2)c1-c1ccncc1 (stereo not drawn) [Example B-0639]
Rat LPS Model % inhib @ dose @ predose time ([2]; -4h before LPS): 50% @ 3 mpk @ -4h

CC(NS(=O)(=O)c1ccc(F)c(Cl)c1)c1[nH]nc(-c2ccc(F)cc2)c1-c1ccncc1 (stereo not drawn) [Example B-0643]
Rat LPS Model % inhib @ dose @ predose time ([2]; -4h before LPS): 0% @ 3 mpk @ -4h

CC(NS(=O)(=O)c1ccc(Cl)s1)c1[nH]nc(-c2ccc(F)cc2)c1-c1ccncc1 (stereo not drawn) [Example B-0650]
Rat LPS Model % inhib @ dose @ predose time ([2]; -4h before LPS): 8% @ 3 mpk @ -4h

CC(NS(=O)(=O)c1ccc(C#N)cc1)c1[nH]nc(-c2ccc(F)cc2)c1-c1ccncc1 (stereo not drawn) [Example B-0656]
Rat LPS Model % inhib @ dose @ predose time ([2]; -4h before LPS): 28% @ 3 mpk @ -4h

O=C(c1ccc(F)cc1)N1CCC(c2[nH]nc(-c3ccc(F)cc3)c2-c2ccncc2)CC1 [Example B-1360]
Rat LPS Model % inhib @ dose @ predose time ([2]; 4 h before LPS challenge): 54% @ 3 mpk @ -4h

O=C(C1CC1)N1CCC(c2[nH]nc(-c3ccc(F)cc3)c2-c2ccncc2)CC1 [Example B-1364]
Rat LPS Model % inhib @ dose @ predose time ([2]; 4 h before LPS challenge): 17% @ 3 mpk @ -4h

N[C@H]1CC[C@@H](c2[nH]nc(-c3cccc(Cl)c3)c2-c2ccncc2)CC1 [Example C-105, 5-cis-(4-AMINOCYCLOHEXYL)-4-(4-PYRIDYL)-3-(3-CHLOROPHENYL)PYRAZOLE]
IC50 [3]: 33 nM
inhibition in vivo at 5 mg/kg [2, 5]: 46%

CN(C)CC(=O)N1CCC(c2[nH]nc(-c3ccc(Cl)cc3)c2-c2ccncc2)CC1 [Example C-122]
IC50 [3]: 25 nM
inhibition in vivo at 5 mg/kg [2, 5]: 55%

CN1CCC(c2[nH]nc(-c3ccc(Cl)cc3)c2-c2ccncn2)CC1 [Example C-137]
IC50 [3]: 51 nM
inhibition in vivo at 5 mg/kg [2, 5]: 58%

O=C(CO)N1CCC(c2[nH]nc(-c3ccc(Cl)cc3)c2-c2ccncn2)CC1 [Example D-1, N-(2-Hydroxyacetyl)-5-(4-piperidyl)-4-(4-pyrimidyl)-3-(4-chlorophenyl)pyrazole]
inhibition in vivo at 1 mg/kg ([2]; Rattus norvegicus, po, 1.0 mg/kg oral gavage, 4 hours before LPS challenge, read-out: ratLPS/% Inh @1.0 (mg/kg)): 83%
